Assay results: BindingDB's records for doi:10.1021/jm981129a (Julius-Maximilians University Würzburg, 1999)
pIC50: −log10 of the molar value.

Target: Nitric oxide synthase, brain (Sus scrofa)
Assay: Inhibitory activity against Nitric oxide synthase (derived from porcine brain cerebellum)

pIC50: 3.74
SMILES: Nc1nc(N)c2nc(COc3ccccc3)cnc2n1 [6-Phenoxymethyl-pteridine-2,4-diamine]
